# Measured values reported in ChEMBL document CHEMBL6103573, “Discovery of novel thienopyridine indole derivatives as inhibitors of tubulin polymerization targeting the colchicine-binding site with potent anticancer activities” (Eur J Med Chem, 2025).
# What was measured:
# [1] = Toxicity in female BALB/c-nu nude mouse xenografted with human MGC-803 cells assessed as body weight loss at 5 mg/kg, po administrated every other day for 11 times and measured after 21 days; type: organism-based; details: in vivo, 504 h, time 21 day
# [2] = biological target: Tubulin beta (Homo sapiens) (UniProt P68371+Q9H4B7+Q13509+P04350+Q3ZCM7+P07437+Q13885+Q9BVA1+Q9BUF5+A6NNZ2); experiment: Competitive binding affinity to beta-tubulin colchicine binding site in human MGC-803 cells assessed as inhibition of EBI-beta-tubulin adduct band formation at 1 umol/L preincubated for 2 hrs followed by EBI addition and measured after 2 hrs by Western blotting analysis; type: cell-based; details: dose 1.0 µmol/L, time 4.0 hrs
smiles,measurement,setting,value
CN(c1ccc2c(ccn2C)c1)c1nc(N2CCCC2)nc2sccc12,Activity,[1],Non-toxic
same,Activity,[2],Active; Stronger Affinity Observed
